From ChEMBL document CHEMBL5137093, “Improving Drug Delivery While Tailoring Prodrug Activation to Modulate Cmax and Cmin by Optimization of (Carbonyl)oxyalkyl Linker-Based Prodrugs of Atazanavir” (J Med Chem, 2022)

Experiments:
[1] = Aqueous stability of the compound in phosphate buffer at pH 6.5 assessed as compound half life measured after 24 hrs by UPLC analysis; type: physicochemical; conditions: buffer, pH 6.5, 24 h, 24 h
[2] = AUClast in Sprague-Dawley rat at 3 ml/kg,po measured upto 24 hrs by UPLC-MS/MS analysis; type: ADME; design: time < 24 hrs, dose 3 ml/kg, route po; conditions: Sprague-Dawley, in vivo, 3 ml/kg
[3] = Metabolic stability in human liver microsomes assessed as half life; type: ADME, Microsome
[4] = Metabolic stability in monkey liver microsomes assessed as half life in presence of NADPH; type: ADME, Macaca mulatta, Microsome; conditions: rhesus monkey
[5] = Relative AUC ratio of Atazanavir in Sprague-Dawley rat at 30 ml/kg,po measured upto 24 hrs by UPLC-MS/MS analysis; type: ADME; conditions: in vivo
[6] = AUClast in Sprague-Dawley rat at 30 ml/kg,po measured upto 24 hrs by UPLC-MS/MS analysis; type: ADME; design: time < 24 hrs, dose 30 ml/kg, route po; conditions: in vivo
[7] = Aqueous solubility of compound at pH 4 by UPLC analysis; type: physicochemical; conditions: buffer
[8] = Ratio of Cmax/Cmin of Atazanavir in Sprague-Dawley rat at 3 ml/kg,po measured after 24 hrs by UPLC-MS/MS analysis; type: ADME; conditions: in vivo
[9] = Metabolic stability in rat intestine microsomes assessed as half life in presence of NADPH; type: ADME, Microsome
[10] = Half life in rat hepatocyte measured upto 120 mins in presence of PMSF and ABT by UPLC-MS/MS analysis; type: ADME, cell-based; conditions: hepatocytes, with PMSF and ABT
[11] = Half life in rat hepatocyte measured upto 120 mins by UPLC-MS/MS analysis; type: ADME, cell-based; conditions: hepatocytes
[12] = Metabolic stability in human liver microsomes assessed as half life in presence of NADPH; type: ADME, Microsome
[13] = Metabolic stability in dog liver microsomes assessed as half life in presence of NADPH; type: ADME, Canis lupus familiaris, Microsome
[14] = Half life in rat hepatocyte measured upto 120 mins in presence of ABT by UPLC-MS/MS analysis; type: ADME, cell-based; conditions: hepatocytes, with ABT
[15] = Metabolic stability in human intestine microsomes assessed as half life in presence of NADPH; type: ADME, Microsome
[16] = Relative Cmax ratio of Atazanavir in Sprague-Dawley rat at 1 ml/kg,iv measured upto 24 hrs by UPLC-MS/MS analysis; type: ADME; conditions: in vivo
[17] = Ratio of Cmax/Cmin of Atazanavir in Sprague-Dawley rat at 1 ml/kg,iv measured after 24 hrs by UPLC-MS/MS analysis; type: ADME; conditions: in vivo
[18] = Relative AUC ratio of Atazanavir in Sprague-Dawley rat at 3 ml/kg,po measured upto 24 hrs by UPLC-MS/MS analysis; type: ADME; conditions: in vivo
[19] = Aqueous solubility of compound at pH 1 by UPLC analysis; type: physicochemical; conditions: buffer
[20] = Clearance in Sprague-Dawley rat at 1 ml/kg,iv measured upto 24 hrs by UPLC-MS/MS analysis; type: ADME; conditions: in vivo
[21] = Cmax in Sprague-Dawley rat at 30 ml/kg,po measured upto 24 hrs by UPLC-MS/MS analysis; type: ADME; design: time < 24 hrs, dose 30 ml/kg, route po; conditions: in vivo
[22] = Cmax in Sprague-Dawley rat at 1 ml/kg,iv measured upto 24 hrs by UPLC-MS/MS analysis; type: ADME; design: dose 1 ml/kg, time < 24 hrs, route iv; conditions: in vivo
[23] = Cmax in Sprague-Dawley rat at 3 ml/kg,po measured upto 24 hrs by UPLC-MS/MS analysis; type: ADME; design: dose 3 ml/kg, time < 24 hrs, route po; conditions: Sprague-Dawley, in vivo, 3 ml/kg
[24] = Volume of distribution at steady state in Sprague-Dawley rat at 1 ml/kg,iv measured upto 24 hrs by UPLC-MS/MS analysis; type: ADME; conditions: in vivo, read-out: Vdss
[25] = AUClast in Sprague-Dawley rat at 1 ml/kg,iv measured upto 24 hrs by UPLC-MS/MS analysis; type: ADME; design: dose 1 ml/kg, time < 24 hrs, route iv; conditions: in vivo
[26] = Ratio of AUC of Atazanavir in Sprague-Dawley rat at 30 ml/kg,po measured upto 24 hrs by UPLC-MS/MS analysis; type: ADME; conditions: in vivo
[27] = Metabolic stability in monkey liver microsomes assessed as half life; type: ADME, Macaca mulatta, Microsome; conditions: rhesus monkey
[28] = Metabolic stability in monkey intestine microsomes assessed as half life; type: ADME, Macaca mulatta, Microsome; conditions: rhesus monkey
[29] = Cmin in Sprague-Dawley rat at 1 ml/kg,iv measured after 24 hrs by UPLC-MS/MS analysis; type: ADME; conditions: in vivo, read-out: Cmin
[30] = Metabolic stability in dog intestine microsomes assessed as half life in presence of NADPH; type: ADME, Canis lupus familiaris, Microsome
[31] = Fold ratio of total AUC of Atazanavir in Sprague-Dawley rat at 1 ml/kg,iv measured upto 24 hrs by UPLC-MS/MS analysis; type: ADME; conditions: in vivo
[32] = Metabolic stability in human intestine microsomes assessed as half life; type: ADME, Microsome
[33] = Metabolic stability in monkey intestine microsomes assessed as half life in presence of NADPH; type: ADME, Macaca mulatta, Microsome; conditions: rhesus monkey
[34] = Half life in rat hepatocyte measured upto 120 mins in presence of PMSF by UPLC-MS/MS analysis; type: ADME, cell-based; conditions: hepatocytes, with PMSF
[35] = Half life in Sprague-Dawley rat at 1 ml/kg,iv measured upto 24 hrs by UPLC-MS/MS analysis; type: ADME; conditions: in vivo
[36] = Tmax in Sprague-Dawley rat at 3 ml/kg,po measured upto 24 hrs by UPLC-MS/MS analysis; type: ADME; conditions: Sprague-Dawley, in vivo, read-out: Tmax
[37] = Metabolic stability in rat liver microsomes assessed as half life; type: ADME, Microsome
[38] = Ratio of AUC of Atazanavir in Sprague-Dawley rat at 1 ml/kg,iv measured upto 24 hrs by UPLC-MS/MS analysis; type: ADME; conditions: in vivo
[39] = Fold ratio of total AUC of Atazanavir in Sprague-Dawley rat at 3 ml/kg,po measured upto 24 hrs by UPLC-MS/MS analysis; type: ADME; conditions: in vivo
[40] = Metabolic stability in rat intestine microsomes assessed as half life; type: ADME, Microsome
[41] = Relative Cmax ratio of Atazanavir in Sprague-Dawley rat at 30 ml/kg,po measured upto 24 hrs by UPLC-MS/MS analysis; type: ADME; conditions: in vivo
[42] = Metabolic stability in dog liver microsomes assessed as half life; type: ADME, Canis lupus familiaris, Microsome
[43] = Metabolic stability in dog intestine microsomes assessed as half life; type: ADME, Canis lupus familiaris, Microsome
[44] = Ratio of AUC of Atazanavir in Sprague-Dawley rat at 3 ml/kg,po measured upto 24 hrs by UPLC-MS/MS analysis; type: ADME; conditions: in vivo
[45] = Fold ratio of total AUC of Atazanavir in Sprague-Dawley rat at 30 ml/kg,po measured upto 24 hrs by UPLC-MS/MS analysis; type: ADME; conditions: in vivo
[46] = Relative AUC ratio of Atazanavir in Sprague-Dawley rat at 1 ml/kg,iv measured upto 24 hrs by UPLC-MS/MS analysis; type: ADME; conditions: in vivo
[47] = Tmax in Sprague-Dawley rat at 30 ml/kg,po measured upto 24 hrs by UPLC-MS/MS analysis; type: ADME; conditions: in vivo
[48] = Ratio of Cmax/Cmin of Atazanavir in Sprague-Dawley rat at 30 ml/kg,po measured after 24 hrs by UPLC-MS/MS analysis; type: ADME; conditions: in vivo
[49] = Relative Cmax ratio of Atazanavir in Sprague-Dawley rat at 3 ml/kg,po measured upto 24 hrs by UPLC-MS/MS analysis; type: ADME; conditions: in vivo
[50] = Metabolic stability in rat liver microsomes assessed as half life in presence of NADPH; type: ADME, Microsome

Q: Which results are given for `COC(=O)N[C@H](C(=O)N[C@@H](Cc1ccccc1)[C@H](CN(Cc1ccc(-c2ccccn2)cc1)NC(=O)[C@@H](NC(=O)OC)C(C)(C)C)OC(=O)OC(OC(=O)[C@@H](N)C(C)C)C(C)C)C(C)(C)C` (stereo in doubt; 3s)?
A: t1/2 [1]: 4.9 h; AUC(0-t) at 24 h [2]: 0.044 µM·h; half-life [3]: 2.82 h; half-life [4]: 9 min; Ratio [5]: 1.32; AUC(0-t) at 24 h [6]: 0.601 µM·h; solubility [7]: > 2300 µg/mL; Ratio [8]: 204.8; half-life [9]: 1.78 h; half-life [10]: 1.43 h; half-life [11]: 0.35 h; half-life [12]: 1.18 h; half-life [13]: 9 min; half-life [14]: 0.433 h; half-life [15]: 0.967 h; Ratio [16]: 2.07; Ratio [17]: 1040.4; Ratio [18]: 6.7; solubility [19]: > 2100 µg/mL; clearance [20]: 102 mL/min/kg; Cmax [21]: 189 nM; Cmax [22]: 151 nM; Cmax [23]: 19 nM; Vd [24]: 35 L/kg; AUC(0-t) at 24 h [25]: 0.17 µM·h; Ratio [26]: 0.02; half-life [27]: 2.45 h; half-life [28]: > 2 h; concentration at 24 h [29]: 2 nM; half-life [30]: 0.883 h; Ratio [31]: 7.3; half-life [32]: 1.83 h; half-life [33]: 0.4 h; half-life [34]: 1.43 h; half-life [35]: 6 h; Tmax [36]: 0.6 h; half-life [37]: 3.73 h; Ratio [38]: 0.04; Ratio [39]: 6.8; half-life [40]: > 2 h; Ratio [41]: 2.1; half-life [42]: 4.82 h; half-life [43]: > 2 h; Ratio [44]: 0.02; Ratio [45]: 1.35; Ratio [46]: 7; Tmax [47]: 0.8 h; Ratio [48]: 329.4; Ratio [49]: 3.8; half-life [50]: 0.833 h
